Experimental data as given in ChEMBL document CHEMBL1201862, “PubChem BioAssay data set” (2004).
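Interpolation was linear, between the two tested concentrations surrounding the appropriate level; five concentrations were tested over 48 hours in 96-well plates. GI50: concentration for 50% inhibition of growth.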 Activity calls are given as the source filed them. No stated cut-off is given here; in the data, active = GI50 up to about 1.1 µM and inactive = higher.

Experiments:
Assay in all cases: DTP human tumour cell line panel, 48 h
NCI-H23 = tested on: NCI-H23
SN12C = tested on: SN12C
CCRF-CEM = tested on: CCRF-CEM
OVCAR-3 = tested on: OVCAR-3
A498 = tested on: A498
OVCAR-4 = tested on: OVCAR-4
CAKI-1 = tested on: CAKI-1
K562 = tested on: K562
SNB-75 = tested on: SNB-75
M19-MEL = tested on: M19-MEL
HOP-62 = tested on: HOP-62
HCT-15 = tested on: HCT-15
UACC-62 = tested on: UACC-62
Malme-3M = tested on: Malme-3M
NCI-H226 = tested on: NCI-H226
COLO 205 = tested on: COLO 205
MDA-MB-231 = tested on: MDA-MB-231
BT-549 = tested on: BT-549
NCI/ADR-RES = tested on: NCI/ADR-RES
T47D = tested on: T47D

| SMILES | GI50 (NCI-H23) | GI50 (SN12C) | GI50 (CCRF-CEM) | GI50 (OVCAR-3) | GI50 (A498) | GI50 (OVCAR-4) | GI50 (CAKI-1) | GI50 (K562) | GI50 (SNB-75) | GI50 (M19-MEL) | GI50 (HOP-62) | GI50 (HCT-15) | GI50 (UACC-62) | GI50 (Malme-3M) | GI50 (NCI-H226) | GI50 (COLO 205) | GI50 (MDA-MB-231) | GI50 (BT-549) | GI50 (NCI/ADR-RES) | GI50 (T47D) |
| --- | --- | --- | --- | --- | --- | --- | --- | --- | --- | --- | --- | --- | --- | --- | --- | --- | --- | --- | --- | --- |
| CC1(c2cccc3ccccc23)OC(=O)c2ccccc21 (configuration not stated) | 16 µM (inactive) | 22 µM (inactive) | 14.3 µM (inactive) | 23.5 µM (inactive) | 21.5 µM (inactive) | 27.7 µM (inactive) | 15 µM (inactive) | 12.8 µM (inactive) | 10 µM (inactive) | 21.3 µM (inactive) | 18.3 µM (inactive) | 18.6 µM | 12 µM (inactive) | 20.7 µM (inactive) | 22.7 µM (inactive) | 16.2 µM (inactive) | – | – | – | – |
| C/C(=N\NC(N)=O)c1sc(-c2nc(C)c(/C(C)=N/NC(N)=O)s2)nc1C | > 100 µM (inactive) | > 100 µM (inactive) | 90.4 µM (inactive) | > 100 µM (inactive) | > 100 µM (inactive) | > 100 µM (inactive) | > 100 µM (inactive) | 53.8 µM (inactive) | > 100 µM (inactive) | > 100 µM (inactive) | > 100 µM (inactive) | 21.9 µM | > 100 µM (inactive) | > 100 µM (inactive) | > 100 µM (inactive) | 53.6 µM (inactive) | – | – | – | – |
| O=C(O)CCC1(Br)CCCCC(Br)C1=O (configuration not stated) | > 100 µM (inactive) | > 100 µM (inactive) | 95.3 µM (inactive) | > 100 µM (inactive) | > 100 µM (inactive) | > 100 µM (inactive) | > 100 µM (inactive) | > 100 µM (inactive) | 35.9 µM (inactive) | > 100 µM (inactive) | > 100 µM (inactive) | > 100 µM | > 100 µM (inactive) | > 100 µM (inactive) | > 100 µM (inactive) | > 100 µM (inactive) | – | – | – | – |
| COc1ccccc1/C=C(\C#N)C(=O)c1ccccc1 | > 100 µM (inactive) | > 100 µM (inactive) | > 100 µM (inactive) | > 100 µM (inactive) | > 100 µM (inactive) | > 100 µM (inactive) | > 100 µM (inactive) | > 100 µM (inactive) | – | > 100 µM (inactive) | > 100 µM (inactive) | > 100 µM | > 100 µM (inactive) | > 100 µM (inactive) | > 100 µM (inactive) | > 100 µM (inactive) | – | – | – | – |
| c1nc2cscc2c2cscc12 | > 100 µM (inactive) | > 100 µM (inactive) | > 100 µM (inactive) | > 100 µM (inactive) | > 100 µM (inactive) | > 100 µM (inactive) | 42.8 µM (inactive) | > 100 µM (inactive) | – | > 100 µM (inactive) | > 100 µM (inactive) | > 100 µM | > 100 µM (inactive) | > 100 µM (inactive) | 29.2 µM (inactive) | – | – | – | – | – |
| COc1cc(Cc2nccc3cc(OC)c(OC)cc23)c(C(C)=O)cc1OC | 124 µM (inactive) | 1.76 µM (inactive) | – | 34.5 µM (inactive) | > 300 µM (inactive) | 6.71 µM (inactive) | > 300 µM (inactive) | – | 3.09 µM (inactive) | 64.9 µM (inactive) | 39.4 µM (inactive) | – | 53 µM (inactive) | 19.7 µM (inactive) | 10.8 µM (inactive) | 18.4 µM (inactive) | 78.5 µM (inactive) | > 100 µM (inactive) | > 300 µM (inactive) | 2.2 µM (inactive) |
| CCC(O)C1Cc2c(C)cc3c(c2O1)C(=O)c1ccccc1C3=O (configuration not stated) | 33.3 µM (inactive) | 35.3 µM (inactive) | 31.3 µM (inactive) | 29.4 µM (inactive) | 18 µM (inactive) | 33.3 µM (inactive) | 24.5 µM (inactive) | 29.8 µM (inactive) | 31.8 µM (inactive) | 41.7 µM (inactive) | 35.9 µM (inactive) | 19.6 µM | 28.8 µM (inactive) | 34.6 µM (inactive) | 46.8 µM (inactive) | 16.1 µM (inactive) | – | – | – | – |
| CCCCCCCCC(=O)NCCN(CCN)C(=O)CCCCCCCC | 17.3 µM (inactive) | 10.8 µM (inactive) | 2.38 µM (inactive) | 15.2 µM (inactive) | 21.9 µM (inactive) | 8.17 µM (inactive) | 17.5 µM (inactive) | 2.18 µM (inactive) | 7 µM (inactive) | 5.74 µM (inactive) | 15.3 µM (inactive) | 5.19 µM | 10.7 µM (inactive) | 17.9 µM (inactive) | 18.5 µM (inactive) | 3.29 µM (inactive) | 3.31 µM (inactive) | 3.44 µM (inactive) | 13.1 µM (inactive) | 14.9 µM (inactive) |
| COC(=O)NC(=O)c1cn(C2CCCCC2)c(=O)[nH]c1=O | > 100 µM (inactive) | > 100 µM (inactive) | > 100 µM (inactive) | > 100 µM (inactive) | > 100 µM (inactive) | > 100 µM (inactive) | > 100 µM (inactive) | > 100 µM (inactive) | > 100 µM (inactive) | > 100 µM (inactive) | > 100 µM (inactive) | > 100 µM | > 100 µM (inactive) | > 100 µM (inactive) | > 100 µM (inactive) | > 100 µM (inactive) | – | – | – | – |
| O=c1c2c(nc3n1CCC3)sc1c(O)c(Br)ccc12 | 27 µM (inactive) | 16.4 µM (inactive) | 15.5 µM (inactive) | 19.1 µM (inactive) | 10.5 µM (inactive) | 17.7 µM (inactive) | > 100 µM (inactive) | 19.3 µM (inactive) | > 100 µM (inactive) | 16.3 µM (inactive) | 19.1 µM (inactive) | 18.6 µM | 17.4 µM (inactive) | 17.5 µM (inactive) | 19.6 µM (inactive) | 11.8 µM (inactive) | – | – | – | – |
| CC(=O)O[C@]1(C)CCC2C(C)C(=O)OC2C2C(C)[C@@H](O)CC21 (some centres not stated) | 36.6 µM (inactive) | 35.6 µM (inactive) | 23.8 µM (inactive) | 12.9 µM (inactive) | 19.8 µM (inactive) | 26.2 µM (inactive) | 47.2 µM (inactive) | 17.1 µM (inactive) | 60.5 µM (inactive) | 23.2 µM (inactive) | 19.3 µM (inactive) | 18.1 µM | 33.9 µM (inactive) | > 100 µM (inactive) | 31.4 µM (inactive) | 20 µM (inactive) | – | – | – | – |
| Clc1ccc2c(NCCCCCCNc3ccnc4cc(Cl)ccc34)ccnc2c1 | 12.3 µM (inactive) | 2.74 µM (inactive) | 2.34 µM (inactive) | 1.84 µM (inactive) | 11.2 µM (inactive) | 2.54 µM (inactive) | 9.04 µM (inactive) | 1.72 µM (inactive) | 2.73 µM (inactive) | 3.13 µM (inactive) | 4.72 µM (inactive) | 2.88 µM | 3.86 µM (inactive) | 12.8 µM (inactive) | 10.4 µM (inactive) | 1.82 µM (inactive) | 2.22 µM (inactive) | 11.6 µM (inactive) | 4.56 µM (inactive) | 2.08 µM (inactive) |
| COc1cc(/C=C2\CCC/C(=C\c3ccc(O)c(OC)c3)C2=O)ccc1O [CYCLOVALONE] | 6.75 µM (inactive) | 2.38 µM (inactive) | 0.525 µM (active) | 2.74 µM (inactive) | 3.99 µM (inactive) | 7.35 µM (inactive) | 2.81 µM (inactive) | 3.22 µM (inactive) | – | 1.86 µM (inactive) | 2.84 µM (inactive) | 2.34 µM | 1.96 µM (inactive) | 2.17 µM (inactive) | 6.17 µM (inactive) | 14.2 µM (inactive) | 5.96 µM (inactive) | 3.59 µM (inactive) | 2.91 µM (inactive) | 3.29 µM (inactive) |
